Experimental data taken from patent publication US11406687B2, “Activators of CXCR3 for the treatment of angiopathies of the eye” (University of Pittsburgh—Of the Commonwealth System of …, priority 2011, dated 2022).

Columns and labels:
[1] = system: rabbits with experimental glaucoma; assay: Restenosis following glaucoma treatment in rabbits with experimental glaucoma (Example 1); type: in vivo, rabbit; conditions: rabbits treated for glaucoma by drilling an anastomy; peptides injected into the aqueous humor
Procedure: To test the effect of the 21 amino acid IP-10 peptide (SEQ ID NO: 2) on restenosis following glaucoma treatment, an experiment is conducted in rabbits with experimental glaucoma.
Rabbits are treated with IP-10 peptide (SEQ ID NO: 2), PF4, or a scrambled control peptide. Rabbits are treated for glaucoma by drilling an anastomy. The peptides are then injected into the aqueous humor.
Changes in pressure are evaluated before and after treatment with the peptides.

[2] = system: rabbits with experimental WMD; assay: Wet macular degeneration in rabbits with experimental WMD (Example 2); type: in vivo, rabbit; conditions: injection into the vitreous humor, repeated as necessary
Procedure: To test the effect of the 21 amino acid IP-10 peptide (SEQ ID NO: 2) on wet macular degeneration (WMD), an experiment is conducted in rabbits with experimental WMD.
Rabbits are treated with IP-10 peptide (SEQ ID NO: 2), PF4, or a scrambled control peptide by injection into the vitreous humor. Rabbits are evaluated visually over time to evaluate the effect of each peptide. Injections are repeated as necessary.

IP-10 peptide: 21 amino acid fragment of human IP-10, ESKAIKNLLKAVSKERSKRSP (listed as Homo sapiens)
Changes in pressure before and after treatment with the peptides [1]: prevent an increase in pressure | Effect on WMD, evaluated visually over time [2]: inhibit the development of WMD and/or lead to a reversion of WMD

B1: PF4: 70-amino acid CXC chemokine released from alpha-granules of activated platelets; human PF4 sequence SEQ ID NO: 3 (protein, listed as Homo sapiens)
chain: EAEEDGDLQCLCVKTTSQVRPRHITSLEVIKAGPHCPTAQLIATLKNGRKICLDLQAPLYKKIIKKLLES
Changes in pressure before and after treatment with the peptides [1]: prevent an increase in pressure | Effect on WMD, evaluated visually over time [2]: inhibit the development of WMD and/or lead to a reversion of WMD
